# Assay results reported in publication PMC11506356, “Selective Inhibition of Deamidated Triosephosphate Isomerase by Disulfiram, Curcumin, and Sodium Dichloroacetate: Synergistic Therapeutic Strategies for T-Cell Acute Lymphoblastic Leukemia in Jurkat Cells” (Biomolecules, 2024).
# How the values were obtained:
# [1] = molecular target: T1, deamidated triosephosphate isomerase (dTPI) (Homo sapiens, UniProt P60174, N16D); experiment: recombinant enzyme inactivation ([…] h, […] °C; coupled NADH assay), ANS fluorescence; assay type: biochemical; conditions: 2 h; read-out: recombinant enzyme inactivation (2 h, 37 °C; coupled NADH assay), ANS fluorescen
# T1 construct: gene TPI1; recombinant human TPI, His-TEV tag removed
# [2] = molecular target: T1, deamidated triosephosphate isomerase (dTPI); experiment: recombinant enzyme inactivation ([…] h, […] °C; coupled NADH assay), Ellman free-thiol quantification, ANS fluorescence; assay type: biochemical; conditions: 2 h; read-out: recombinant enzyme inactivation (2 h, 37 °C; coupled NADH assay), Ellman free-th
# T1 sequence (P60174 2-249 N16D): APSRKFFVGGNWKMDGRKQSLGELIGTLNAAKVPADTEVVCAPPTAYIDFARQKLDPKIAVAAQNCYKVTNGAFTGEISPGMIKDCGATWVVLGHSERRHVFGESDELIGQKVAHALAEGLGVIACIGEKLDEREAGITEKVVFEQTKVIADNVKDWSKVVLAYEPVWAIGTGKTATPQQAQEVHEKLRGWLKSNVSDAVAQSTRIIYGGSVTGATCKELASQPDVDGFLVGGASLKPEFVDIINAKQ
IC90 [1],Compound,IC100 [2]
~1500 µM,"COc1cc(/C=C/C(=O)CC(=O)/C=C/c2ccc(O)c(OC)c2)ccc1O [CU, curcumin]",
,"CCN(CC)C(=S)SSC(=S)N(CC)CC [DS, disulfiram]",250 µM
